Test results reported in US9827250B2, “Lens incorporating myopia control optics and muscarinic agents” (Johnson & Johnson Vision Care, Inc., priority 2012, dated 2017).

Assays:
[1] = Drug release from drug loaded lenses into PBS; type: physicochemical; conditions: 34 degrees C
Procedure: Five drug loaded lenses, all together, were placed into 1 mL of phosphate buffered saline (PBS) and placed in a shaking water bath at thirty-four (34) degrees C. Samples were taken at regular intervals and replaced with fresh PBS. Release samples were analyzed spectrophotometrically to determine the concentration. As well, the nature of the peaks was also examined to determine whether there were any changes relative to the control samples (freshly prepared drug in appropriate buffer solutions). Drug loading and release was controlled using different loading concentrations to determine whether the release rate of the drug could be altered by changing simply or easily controlled conditions. Various drug concentrations were examined. In the case of 1 DAM, AT in ethanol and water (1:1) at various concentrations was examined or utilized. For the ATSM release from ATE lenses, the lenses were removed from the loading solution and rinsed to remove loosely physically adsorbed drug. For the 1 DAM lenses, the lenses were dried to remove any residual ethanol and rehydrated prior to the release study.
To establish drug release concentrations, five drug loaded lenses were placed into 1 ml of phosphate buffered saline (PBS) solution and placed in a shaking water bath at 34° C. […] Samples of solution were analyzed spectrophotometrically to determine the concentration of the released drug.

[2] = system: progression of myopia; conditions: 0.5 percent drops instilled one time per day; cited from earlier work

| SMILES | release of drug from 1 DAM lenses ([1]; 1 DAM lenses, FIG. 5) | release rate from ATE lenses as compared to 1 DAM lenses ([1]; ATE lenses, FIG. 7) | efficacy in slowing the progression of myopia [2] |
| --- | --- | --- | --- |
| CN1[C@@H]2CC[C@H]1C[C@@H](OC(=O)C(CO)c1ccccc1)C2 (stereo partly drawn) [ATSM, atropine sulphate monohydrate] | release more quickly in greater amounts | somewhat lower release rate | – |
| CN1[C@@H]2CC[C@H]1C[C@@H](OC(=O)C(CO)c1ccccc1)C2 (stereo partly drawn) [Atropine, atropine] | – | – | show efficacy in slowing the progression of myopia |
